Reference: patent US20240383923A1, “HETEROARYL DERIVATIVE AND USE THEREOF” (VORONOI INC., priority 2022, published 2024)

These compounds were tested on BT-474 cancer cells (assay: Inhibition of BT-474 cell proliferation (CellTiter-Glo)). Settings: Homo sapiens, BT-474 cells, 120 hours.
Assay type: cell-based
Procedure: BT-474 cancer cells were cultured by using RPMI-1640 medium containing 20% FBS. The BT-474 cancer cells were seeded to a white clear bottom 96 well plate (Corning) at 5,000 cells per well 48 hours before the BT-474 cancer cells were treated with Example Compounds. Example Compounds were diluted in dimethylsulfoxide (3-fold diluted, total 11 concentrations) and 1 μL each was injected so that the final concentration was 0.2 nM to 10 μM. For the measurement of living cells, the cells were stored at room temperature for 10 minutes using the CellTiter-Glo cell viability reagent (Promega) after a predetermined time (120 hours) after the treatment of Example Compounds, and then the luminescence intensity was measured using a reader (SynergyNeo, Biotek). Each test was repeated three times.
The result value was calculated as a cell growth rate (%) compared to a control group. Graphs were plotted and GI50 values were calculated using the GraphPad Prism version 8.0 program, and the results are shown in Table 18 below.

Structure (SMILES) | GI50 [nM]
COc1cc(Oc2ccn3ncnc3c2)c(C)cc1Nc1ncnc2cc(F)c(NC(=O)/C(F)=C\[C@H]3CCCN3C)cc12 [Example 102, (R,E)-N-(4-((4-([1,2,4]triazolo[1,5-a]pyridin-7-yloxy)-2-methoxy-5-methylphenyl)amino)-7-fluoroquinazolin-6-yl)-2-fluoro-3-(1-methylpyrrolidin-2-yl)acrylamide] | ≤ 50
COc1cc(Oc2ccn3ncnc3c2)c(C)cc1Nc1ncnc2cc(F)c(NC(=O)/C(F)=C/[C@H]3CCCN3C)cc12 [Example 103, (R,Z)—N-(4-((4-([1,2,4]triazolo[1,5-a]pyridin-7-yloxy)-2-methoxy-5-methylphenyl)amino)-7-fluoroquinazolin-6-yl)-2-fluoro-3-(1-methylpyrrolidin-2-yl)acrylamide] | ≤ 50
COc1cc2ncnc(Nc3cc(C)c(Oc4ccn5ncnc5c4)cc3OC(F)(F)F)c2cc1NC(=O)/C(F)=C\[C@H]1CCCN1C [Example 105, (R,E)-N-(4-((4-([1,2,4]triazolo[1,5-a]pyridin-7-yloxy)-5-methyl-2-(trifluoromethoxy)phenyl)amino)-7-methoxyquinazolin-6-yl)-2-fluoro-3-(1-methylpyrrolidin-2-yl)acrylamide] | > 500
COc1cc2ncnc(Nc3cc(C)c(Oc4ccn5ncnc5c4)cc3OC3CC3)c2cc1NC(=O)/C(F)=C\[C@H]1CCCN1C [Example 106, (R,E)-N-(4-((4-([1,2,4]triazolo[1,5-a]pyridin-7-yloxy)-2-cyclopropoxy-5-methylphenyl)amino)-7-methoxyquinazolin-6-yl)-2-fluoro-3-(1-methylpyrrolidin-2-yl)acrylamide] | ≤ 50
COc1cc2ncnc(Nc3cc(C)c(Oc4ccn5ncnc5c4)cc3OC3CC3)c2cc1NC(=O)/C(F)=C/[C@H]1CCCN1C [Example 107, (R,Z)—N-(4-((4-([1,2,4]triazolo[1,5-a]pyridin-7-yloxy)-2-cyclopropoxy-5-methylphenyl)amino)-7-methoxyquinazolin-6-yl)-2-fluoro-3-(1-methylpyrrolidin-2-yl)acrylamide] | ≤ 50
COc1cc2ncnc(Nc3ccc(Oc4ccn5ncnc5c4)cc3OC3COC3)c2cc1NC(=O)/C(F)=C\[C@H]1CCCN1C(=O)OC(C)(C)C [Example 109, tert-butyl (R,E)-2-(3-((4-((4-([1,2,4]triazolo[1,5-a]pyridin-7-yloxy)-2-(oxetan-3-yloxy)phenyl)amino)-7-methoxyquinazolin-6-yl)amino)-2-fluoro-3-oxoprop-1-en-1-yl)pyrrolidine-1-carboxylate] | > 500
COc1cc2ncnc(Nc3cc(C)c(Oc4ccn5ncnc5c4)cc3OC)c2cc1NC(=O)/C(F)=C/[C@@H]1CCCN1C [Example 112, (S,Z)—N-(4-((4-([1,2,4]triazolo[1,5-a]pyridin-7-yloxy)-2-methoxy-5-methylphenyl)amino)-7-methoxyquinazolin-6-yl)-2-fluoro-3-(1-methylpyrrolidin-2-yl)acrylamide] | ≤ 50
COc1cc(Oc2ccn3ncnc3c2)c(C)cc1Nc1ncnc2cc(N3CC(F)(F)C3)c(NC(=O)/C(F)=C/[C@H]3CCCN3C)cc12 [Example 114, (R,Z)—N-(4-((4-([1,2,4]triazolo[1,5-a]pyridin-7-yloxy)-2-methoxy-5-methylphenyl)amino)-7-(3,3-difluoroazetidin-1-yl)quinazolin-6-yl)-2-fluoro-3-(1-methylpyrrolidin-2-yl)acrylamide] | ≤ 50
CCOc1cc2ncnc(Nc3cc(C)c(Oc4ccn5ncnc5c4)cc3OC)c2cc1NC(=O)/C(F)=C/[C@H]1CCCN1C [Example 120, (R,Z)—N-(4-((4-([1,2,4]triazolo[1,5-a]pyridin-7-yloxy)-2-methoxy-5-methylphenyl)amino)-7-ethoxyquinazolin-6-yl)-2-fluoro-3-(1-methylpyrrolidin-2-yl)acrylamide] | ≤ 50
